Laboratory results as given in ChEMBL document CHEMBL1144939, “Modeling the adenosine receptors: comparison of the binding domains of A2A agonists and antagonists” (J Med Chem, 2003).

How the values were obtained:
[1] = molecular target: Adenosine receptor A2a (Homo sapiens, UniProt P29274, T88D); experiment: Binding affinity against T88D human adenosine A2A receptor expressed in CHO cells using [3H]- ZM-241385; type: cell-based
[2] = molecular target: Adenosine receptor A2a (Homo sapiens, UniProt P29274, H278D); experiment: biochemical
[3] = molecular target: Adenosine receptor A2a (Homo sapiens, UniProt P29274, T88E); experiment: Binding affinity against T88E human adenosine A2A receptor expressed in CHO cells using [3H]- ZM-241385; type: cell-based
[4] = molecular target: Adenosine receptor A2a (Homo sapiens, UniProt P29274, H278E); experiment: biochemical
[5] = molecular target: Adenosine receptor A2a (Homo sapiens, UniProt P29274, Q89D); experiment: biochemical
[6] = molecular target: Adenosine receptor A2a (Homo sapiens, UniProt P29274); experiment: biochemical
Description: Binding affinity against WT human adenosine A2A receptor expressed in CHO cells using [3H]- ZM-241385

[7] = molecular target: Adenosine receptor A2a (Homo sapiens, UniProt P29274, S277E); experiment: biochemical
[8] = molecular target: Adenosine receptors; A1 & A2a (Homo sapiens) (UniProt P30542+P29274); experiment: Selectivity ratio for binding to human adenosine A1 and A2A receptors; type: protein assay

Adenosine receptor A2a (Homo sapiens, UniProt P29274, T88E), sequence (P29274 whole entry T88E): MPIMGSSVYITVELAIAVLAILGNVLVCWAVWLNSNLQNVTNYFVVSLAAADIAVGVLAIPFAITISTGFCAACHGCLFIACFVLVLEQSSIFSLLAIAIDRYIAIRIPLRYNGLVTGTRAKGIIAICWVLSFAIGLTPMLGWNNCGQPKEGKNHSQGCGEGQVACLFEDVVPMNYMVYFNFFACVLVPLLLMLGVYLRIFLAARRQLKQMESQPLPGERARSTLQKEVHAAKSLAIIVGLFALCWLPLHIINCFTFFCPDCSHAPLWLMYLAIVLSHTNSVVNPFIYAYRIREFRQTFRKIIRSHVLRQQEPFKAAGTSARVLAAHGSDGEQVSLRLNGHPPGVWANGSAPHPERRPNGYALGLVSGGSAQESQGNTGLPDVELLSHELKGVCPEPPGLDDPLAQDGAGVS
Adenosine receptor A2a (Homo sapiens, UniProt P29274, S277E), sequence (P29274 whole entry S277E): as the sequence (P29274 whole entry T88E) above, with E88T, S277E counted along it
Adenosine receptor A2a (Homo sapiens, UniProt P29274, T88D), sequence (P29274 whole entry T88D): as the sequence (P29274 whole entry T88E) above, with E88D counted along it
Adenosine receptor A2a (Homo sapiens, UniProt P29274), sequence (P29274 whole entry): as the sequence (P29274 whole entry T88E) above, with E88T counted along it
Adenosine receptor A2a (Homo sapiens, UniProt P29274, Q89D), sequence (P29274 whole entry Q89D): as the sequence (P29274 whole entry T88E) above, with E88T, Q89D counted along it
Adenosine receptor A2a (Homo sapiens, UniProt P29274, H278E), sequence (P29274 whole entry H278E): as the sequence (P29274 whole entry T88E) above, with E88T, H278E counted along it
Adenosine receptor A2a (Homo sapiens, UniProt P29274, H278D), sequence (P29274 whole entry H278D): as the sequence (P29274 whole entry T88E) above, with E88T, H278D counted along it

| SMILES | Ki [1] | Ki [2] | Ki [3] | Ki [4] | Ki [5] | Ki [6] | Ki [7] | Ratio [8] |
| --- | --- | --- | --- | --- | --- | --- | --- | --- |
| NC[C@H]1[C@@H](O)[C@H](n2cnc3c(NCc4cccc(I)c4)ncnc32)O[C@@H]1CO | 6.5 µM | 59 µM | 64 µM | 56 µM | 58 µM | 0.079 µM | 67 µM | – |
| N[C@H]1[C@@H](O)[C@H](n2cnc3c(NCc4cccc(I)c4)ncnc32)O[C@@H]1CO | 18 µM | 87 µM | 57 µM | 64 µM | 6.4 µM | 0.067 µM | 88 µM | – |
| Nc1ccc(CCCn2ncc3c2nc(N)n2nc(-c4ccco4)nc32)cc1 | – | – | – | – | – | – | – | 9820 |
| NC[C@H]1O[C@@H](n2cnc3c(N)ncnc32)[C@H](O)[C@@H]1O | 407 µM | – | 492 µM | – | 52 µM | 0.534 µM | 604 µM | – |
